Measurements published in patent US12692254B2, “Benzimidazole inhibitors of PAD enzymes” (BRISTOL-MYERS SQUIBB COMPANY, priority 2018, dated 2026).

target: human PAD4 (hPAD4) (Homo sapiens, UniProt Q9UM07); experiment: RFMS human PAD4 functional assay (rapid-fire mass spectrum); type: biochemical; conditions: 5 nM hPAD4 enzyme, 250 μM BAEE, 50 μM Calcium; 30 min preincubation, 90 min reaction at 37° C.
Outline: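 PAD4 (10 nM) preincubated 30 min with compound (top final 50 μM), then BAEE substrate added in pH 7.5 HEPES buffer with DTT, 50 μM calcium, TPEN; 90 min at 37° C. After TCA quench, citrulline derivatized with phenyl glyoxal (4 mM final, 30 min, 37° C) and quantified by RapidFire MS against internal standard.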

Chain of human PAD4 (hPAD4) (Q9UM07 whole entry): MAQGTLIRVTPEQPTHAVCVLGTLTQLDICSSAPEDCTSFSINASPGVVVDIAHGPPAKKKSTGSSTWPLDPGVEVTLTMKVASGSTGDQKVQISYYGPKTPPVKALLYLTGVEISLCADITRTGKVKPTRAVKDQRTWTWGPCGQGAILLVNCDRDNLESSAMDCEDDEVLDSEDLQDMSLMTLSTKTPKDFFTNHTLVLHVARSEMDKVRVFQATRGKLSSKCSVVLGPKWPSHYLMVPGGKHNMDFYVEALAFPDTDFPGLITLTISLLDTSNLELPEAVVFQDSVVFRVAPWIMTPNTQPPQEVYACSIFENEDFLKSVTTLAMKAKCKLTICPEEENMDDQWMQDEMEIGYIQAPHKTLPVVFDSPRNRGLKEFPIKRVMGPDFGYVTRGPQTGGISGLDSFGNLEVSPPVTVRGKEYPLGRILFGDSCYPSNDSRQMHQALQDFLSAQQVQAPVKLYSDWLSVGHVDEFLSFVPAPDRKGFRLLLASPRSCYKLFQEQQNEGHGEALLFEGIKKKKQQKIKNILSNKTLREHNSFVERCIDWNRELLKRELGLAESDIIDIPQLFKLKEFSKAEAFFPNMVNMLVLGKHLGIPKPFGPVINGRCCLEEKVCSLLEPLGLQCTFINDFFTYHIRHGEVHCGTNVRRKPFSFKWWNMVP

SMILES | IC50 [nM]
COc1cc(C(=O)N2C[C@H]3CC[C@@H]2[C@@H]3N)cc2nc(-c3cc4cccnc4n3CC3CC3)n(CC3CN(c4cnccn4)C3)c12 [Example 74, (1R,4R,7R)-2-{2-[1-(cyclopropylmethyl)-1H-pyrrolo[2,3-b]pyridin-2-yl]-7-methoxy-1-{[1-(pyrazin-2-yl)azetidin-3-yl]methyl}-1H-1,3-benzodiazole-5-carbonyl}-2-azabicyclo[2.2.1]heptan-7-amine] | 210
COc1cc(C(=O)N2C[C@H]3CC[C@@H]2[C@@H]3N)cc2nc(-c3cc4ccccc4n3CC3CC3)n(CC3CN(C(=O)c4ccc(O)cc4F)C3)c12 [Example 147, 4-[3-({5-[(1R,4R,7R)-7-amino-2-azabicyclo[2.2.1]heptane-2-carbonyl]-2-[1-(cyclopropylmethyl)-1H-indol-2-yl]-7-methoxy-1H-1,3-benzodiazol-1-yl}methyl)azetidine-1-carbonyl]-3-fluorophenol] | 19
COc1cc(C(=O)N2CC3CCC2[C@@H]3N)cc2nc(-c3cc4cccnc4n3CC3CC3)n(CC3CN(C(=O)c4cc(F)ccc4F)C3)c12 (stereo partly drawn) [Example 422, (7R)-2-{2-[1-(cyclopropylmethyl)-1H-pyrrolo[2,3-b]pyridin-2-yl]-1-{[1-(2,5-difluorobenzoyl)azetidin-3-yl]methyl}-7-methoxy-1H-1,3-benzodiazole-5-carbonyl}-2-azabicyclo[2.2.1]heptan-7-amine] | 22
COc1cc(C(=O)N2CC3CCC2[C@@H]3N)cc2nc(-c3cc4ccccc4n3CC3CC3)n(CC3CN(C(=O)c4ccc(C#N)nc4)C3)c12 (stereo partly drawn) [Example 415, 5-[3-({5-[(7R)-7-amino-2-azabicyclo[2.2.1]heptane-2-carbonyl]-2-{1-(cyclopropylmethyl)-1H-indol-2-yl]-7-methoxy-1H-1,3-benzodiazol-1-yl}methyl)azetidine-1-carbonyl]pyridine-2-carbonitrile] | 41
COc1cc(C(=O)N2C[C@H](N)C[C@@H](F)C2)cc2nc(-c3cc4cccnc4n3CC3CC3)n(Cc3cnn(-c4ncc(F)cc4F)c3)c12 [Example 393, (3R,5R)-1-{2-[1-(cyclopropylmethyl)-1H-pyrrolo[2,3-b]pyridin-2-yl]-1-{[1-(3,5-difluoropyridin-2-yl)-1H-pyrazol-4-yl]methyl}-7-methoxy-1H-1,3-benzodiazole-5-carbonyl}-5-fluoropiperidin-3-amine] | 49
N[C@@H]1C2CCC1N(C(=O)c1cc(F)c3c(c1)nc(-c1cc4cccnc4n1CC1CC1)n3CC1CN(C(=O)c3ccncc3)C1)C2 (stereo partly drawn) [Example 466, (7R)-2-{2-[1-(cyclopropylmethyl)-1H-pyrrolo[2,3-b]pyridin-2-yl]-7-fluoro-1-{[1-(pyridine-4-carbonyl)azetidin-3-yl]methyl}-1H-1,3-benzodiazole-5-carbonyl}-2-azabicyclo[2.2.1]heptan-7-amine] | 84
COc1cc(C(=O)N2C[C@H]3CC[C@@H]2[C@@H]3N)cc2nc(-c3cc4cccnc4n3CC3CC3)n(C3CN(S(=O)(=O)CC4CC4)C3)c12 [Example 331, (1R,4R,7R)-2-[1-(1-cyclopropylmethanesulfonylazetidin-3-yl)-2-[1-(cyclopropylmethyl)-1H-pyrrolo[2,3-b]pyridin-2-yl]-7-methoxy-1H-1,3-benzodiazole-5-carbonyl]-2-azabicyclo[2.2.1]heptan-7-amine] | 190
COc1cc(C(=O)N2C[C@H]3CC[C@@H]2[C@@H]3N)cc2nc(-c3cc4cccnc4n3CC3CC3)n(C[C@H]3CCN(c4cncc(C#N)c4)C3)c12 [Example 195, 5-[(3S)-3-({5-[(1R,4R,7R)-7-amino-2-azabicyclo[2.2.1]heptane-2-carbonyl]-2-[1-(cyclopropylmethyl)-1H-pyrrolo[2,3-b]pyridin-2-yl]-7-methoxy-1H-1,3-benzodiazol-1-yl}methyl)pyrrolidin-1-yl]pyridine-3-carbonitrile] | 14
COc1cc(C(=O)N2C[C@H]3CC[C@@H]2[C@@H]3N)cc2nc(-c3cc4cccnc4n3CC3CC3)n(C3CN(c4ccnc(C#N)n4)C3)c12 [Example 68, 4-(3-{5-[(1R,4R,7R)-7-amino-2-azabicyclo[2.2.1]heptane-2-carbonyl]-2-[1-(cyclopropylmethyl)-1H-pyrrolo[2,3-b]pyridin-2-yl]-7-methoxy-1H-1,3-benzodiazol-1-yl}azetidin-1-yl)pyrimidine-2-carbonitrile] | 124
COc1cc(C(=O)N2C[C@H]3CC[C@@H]2[C@@H]3N)cc2nc(-c3cc4cccnc4n3CC3CC3)n(C3CN(c4ccncn4)C3)c12 [Example 86, (1R,4R,7R)-2-{2-[1-(cyclopropylmethyl)-1H-pyrrolo[2,3-b]pyridin-2-yl]-7-methoxy-1-[1-(pyrimidin-4-yl)azetidin-3-yl]-1H-1,3-benzodiazole-5-carbonyl}-2-azabicyclo[2.2.1]heptan-7-amine] | 1680
COc1cc(C(=O)N2CC3CCC2[C@@H]3N)cc2nc(-c3csc4ccc(Cl)cc34)n(CC3CN(c4cncc(C#N)c4)C3)c12 (stereo partly shown) [Example 316] | 1150
COc1cc(C(=O)N2C[C@H]3CC[C@@H]2[C@@H]3N)cc2nc(-c3cc4cccnc4n3CC3CC3)n(C3CN(c4cncc(C#N)n4)C3)c12 [Example 69, 6-(3-{5-[(1R,4R,7R)-7-amino-2-azabicyclo[2.2.1]heptane-2-carbonyl]-2-[1-(cyclopropylmethyl)-1H-pyrrolo[2,3-b]pyridin-2-yl]-7-methoxy-1H-1,3-benzodiazol-1-yl}azetidin-1-yl)pyrazine-2-carbonitrile] | 58
COc1cc(C(=O)N2C[C@H]3CC[C@@H]2[C@@H]3N)cc2nc(-c3cc4cccnc4n3CC3CC3)n(C[C@@H]3CCN(c4cncc(C#N)c4)C3)c12 [Example 211, 5-[(3R)-3-({5-[(1R,4R,7R)-7-amino-2-azabicyclo[2.2.1]heptane-2-carbonyl]-2-[1-(cyclopropylmethyl)-1H-pyrrolo[2,3-b]pyridin-2-yl]-7-methoxy-1H-1,3-benzodiazol-1-yl}methyl)pyrrolidin-1-yl]pyridine-3-carbonitrile] | 80
COc1cccc(-n2cc(Cn3c(-c4cc5ccccc5n4CC4CC4)nc4cc(C(=O)N5CC6CCC5[C@@H]6N)cc(OC)c43)cn2)n1 (stereo partly drawn) [Example 378, (7R)-2-{2-[1-(cyclopropylmethyl)-1H-indol-2-yl]-7-methoxy-1-{[1-(6-methoxypyridin-2-yl)-1H-pyrazol-4-yl]methyl}-1H-1,3-benzodiazole-5-carbonyl}-2-azabicyclo[2.2.1]heptan-7-amine] | 37
CCOC(=O)N1CC(Cn2c(-c3cc4cccnc4n3CC3CC3)nc3cc(C(=O)N4C[C@H]5CC[C@@H]4[C@@H]5N)cc(OC)c32)C1 [Example 130, ethyl 3-({5-[(1R,4R,7R)-7-amino-2-azabicyclo[2.2.1]heptane-2-carbonyl]-2-[1-(cyclopropylmethyl)-1H-pyrrolo[2,3-b]pyridin-2-yl]-7-methoxy-1H-1,3-benzodiazol-1-yl}methyl)azetidine-1-carboxylate] | 128
COc1cc(C(=O)N2C[C@H]3CC[C@@H]2[C@@H]3N)cc2nc(-c3cc4ccccc4n3CC3CC3)n(CC3CN(C(=O)c4ccc(Cl)cc4)C3)c12 [Example 166, (1R,4R,7R)-2-(1-{[1-(4-chlorobenzoyl)azetidin-3-yl]methyl}-2-[1-(cyclopropylmethyl)-1H-indol-2-yl]-7-methoxy-1H-1,3-benzodiazole-5-carbonyl)-2-azabicyclo[2.2.1]heptan-7-amine] | 31
COc1cc(C(=O)N2CC3CCC2[C@@H]3N)cc2nc(-c3cccn3CC3CC3)n(CC3CN(c4cncc(C#N)n4)C3)c12 (stereo partly drawn) [Example 313, 6-[3-({5-[(1R,4R,7R)-7-amino-2 azabicyclo[2.2.1]heptane-2-carbonyl]-2-[1-(cyclopropylmethyl)-1H-pyrro1-2-yl]-7-methoxy-1H-1,3-benzodiazol-1-yl}methyl)azetidin-1-yl]pyrazine-2-carbonitrile] | 403
COc1cc(C(=O)N2CC3CCC2[C@@H]3N)cc2nc(-c3cc4cccnc4n3CC3CC3)n(Cc3ccnn3C)c12 (stereo partly drawn) [Example 496, (7R)-2-{2-[1-(cyclopropylmethyl)-1H-pyrrolo[2,3-b]pyridin-2-yl]-7-methoxy-1-[(1-methyl-1H-pyrazol-5-yl)methyl]-1H-1,3-benzodiazole-5-carbonyl}-2-azabicyclo[2.2.1]heptan-7-amine] | 102
COc1cc(C(=O)N2CC3CCC2[C@@H]3N)cc2nc(-c3cc4ccccc4n3CC3CC3)n(CC3CN(C(=O)c4cnc(C#N)nc4)C3)c12 (stereo partly drawn) [Example 463, 5-[3-({5-[(7R)-7-amino-2-azabicyclo[2.2.1]heptane-2-carbonyl]-2-[1-(cyclopropylmethyl)-1H-indol-2-yl]-7-methoxy-1H-1,3-benzodiazol-1-yl}methyl)azetidine-1-carbonyl]pyrimidine-2-carbonitrile] | 73
Cn1cc(Cn2c(-c3cc4ccccc4n3CC3CC3)nc3cc(C(=O)N4C[C@H](N)C[C@@H](F)C4)cc(Cl)c32)cn1 [Example 517, (3R,5R)-1-{7-chloro-2-[1-(cyclopropylmethyl)-1H-indol-2-yl]-1-[(1-methyl-1H-pyrazol-4-yl)methyl]-1H-1,3-benzodiazole-5-carbonyl}-5-fluoropiperidin-3-amine] | 590
COc1cc(C(=O)N2CC3CCC2[C@@H]3N)cc2nc(-c3cc4cccnc4n3CC3CC3)n(CC3CCN(c4cnc(C#N)nc4)CC3)c12 (stereo partly drawn) [Example 221, 5-[4-({5-[(1R,4R.,7R)-7-amino-2-azabicyclo[2.2.1]heptane-2-carbonyl]-2-[1-(cyclopropylmethyl)-1H-pyrrolo[2,3-b]pyridin-2-yl]-7-methoxy-1H-1,3-benzodiazol-1-yl}methyl)piperidin-1-yl]pyrimidine-2-carbonitrile] | 96
COc1cc(C(=O)N2C[C@H]3CC[C@@H]2[C@@H]3N)cc2nc(-c3cc4cccnc4n3CC3CC3)n(CC3CN(c4nccs4)C3)c12 [Example 47, (1R,4R,7R)-2-{2-[1-(cyclopropylmethyl)-1H-pyrrolo[2,3-b]pyridin-2-yl]-7-methoxy-1-{[1-(1,3-thiazol-2-yl)azetidin-3-yl]methyl}-1H-1,3-benzodiazole-5-carbonyl}-2-azabicyclo[2.2.1]heptan-7-amine] | 119
